According to US20250059509A1, “METHOD FOR PRODUCING MACROPHAGES, DIFFERENTIATION INDUCING AGENT, DIFFERENTIATION INDUCTION KIT, METHOD FOR CULTURING MACROPHAGES, AGENT FOR PROMOTING MACROPHAGE PROPAGATION, KIT FOR PROMOTING MACROPHAGE PROLIFERATION, METHOD FOR MACROPHAGE PROLIFERATION, AND MACROPHAGES” (Kagoshima University, priority 2021, published 2025):

B1: macrophage colony-stimulating factor (protein, UniProt P07141 33-552, looked up)
Macrophage colony-stimulating …: KEVSEHCSHMIGNGHLKVLQQLIDSQMETSCQIAFEFVDQEQLDDPVCYLKKAFFLVQDIIDETMRFKDNTPNANATERLQELSNNLNSCFTKDYEEQNKACVRTFHETPLQLLEKIKNFFNETKNLLEKDWNIFTKNCNNSFAKCSSRDVVTKPDCNCLYPKATPSSDPASASPHQPPAPSMAPLAGLAWDDSQRTEGSSLLPSELPLRIEDPGSAKQRPPRSTCQTLESTEQPNHGDRLTEDSQPHPSAGGPVPGVEDILESSLGTNWVLEEASGEASEGFLTQEAKFSPSTPVGGSIQAETDRPRALSASPFPKSTEDQKPVDITDRPLTEVNPMRPIGQTQNNTPEKTDGTSTLREDHQEPGSPHIATPNPQRVSNSATPVAQLLLPKSHSWGIVLPLGELEGKRSTRDRRSPAELEGGSASEGAARPVARFNSIPLTDTGHVEQHEGSSDPQIPESVFHLLVPGIILVLLTVGGLLFYKWKWRSHRDPQTLDSSVGRPEDSSLTQDEDRQVELPV

Assays:
mouse bone marrow cells = test: Induction of differentiation of mouse bone marrow cells with each test substance, viable cells by WST-8 assay; format: cell-based; settings: plate coated with 1 μg test substance per well; WST-8 on Days 5, 10, 14 and 20; FIG. 10
Protocol: To fresh 10% FBS/RPMI medium, 1/10 volume of WST-8 (07553-15 Cell Count Reagent SF, manufactured by Nacalai Tesque Inc.) was added to prepare a medium for counting the number of viable cells. The old medium in the culture plate was removed by aspiration, and the medium for counting the number of viable cells was dispensed at 100 μl/well. The cells were cultured at 37° C. in a 5% CO2 incubator for 1 hour. The absorbance at 450 nm was measured using a microplate reader.
A 96-well cell culture plate was coated with each test substance in the same manner as described above, and mouse bone marrow cells were plated in the plate at 4×10^4 cells/100 μl/well.

TREM2 = test: Ligand activity using TREM2 reporter cells (GFP-positive cells by flow cytometry); settings: plate coated with 1 μg test substance per well; reporter cells cultured 16 hours; FIG. 9
Protocol: Using a retroviral vector, TREM2 and DAP12 cDNAs were introduced into 2B4-NFAT-GFP reporter cells (obtained from RIKEN), to prepare reporter cells in which binding of a ligand to TREM2 expressed on the cell surface induces expression of GFP (Iizasa and others, Nature Communications, 2021, vol. 12 (1), p. 2299-16).
As a test substance, β-GluCer, α-GalCer, palmitic acid, stearic acid, cholesterol, PC, LPC, PE, Sulf, or MA was diluted with methanol to 50 μg/ml. The test substance was aliquoted in 20-μl (1-μg) portions into a 96-well cell culture plate, and then the plate was left to stand in a clean bench, to evaporate the methanol.
In the culture plate coated with the test substance, the reporter cells were plated at 5×10^4 cells/100 μl/well. The cells were cultured in a CO2 incubator for 16 hours. The culture was suspended well, and transferred to a V-bottom 96-well plate. The sample was centrifuged at 500 G at 4° C. for 5 minutes, and then the supernatant was discarded. The sample was suspended by adding 50 μl/well of 10 μg/ml PI/1% FBS/HBSS. GFP-positive cells in the sample were analyzed by flow cytometry.

LIMs and BMDMs = test: Cryopreservation test of LIMs and BMDMs; format: cell-based, mouse; settings: −80° C. for thirty days; 25 ng/ml M-CSF; viable cells Day 6 or Day 14; FIG. 6
Protocol: LIMs and BMDMs at 80 to 90% confluence were detached from culture plates, and separately centrifuged at 500 G for 5 minutes, followed by discarding the supernatant. In a CELLBANKER 1 (manufactured by Nippon Zenyaku Kogyo Co., Ltd.), the cells were suspended at 5×10^5 to 5×10^6 cells per 1 ml, and the resulting suspension was transferred to a CryoTube, and stored at −80° C. Thirty days later, the cells were thawed, and plated in a 24-well plate without stimulation (None), with addition of 25 ng/ml M-CSF (M-CSF), or with brain lipid coating (BL). The number of viable cells on Day 6 or Day 14 after the plating was counted using a hemocytometer.

Molecule | differentiation of bone marrow cells into LIMs (mouse bone marrow cells) | ligand activity for TREM2 (TREM2) | proliferation of BMDMs thawed after cryopreservation (LIMs and BMDMs)
CCCCCCCCCCCCCCCCCCCCCCCCCC(=O)N[C@@H](CO[C@H]1O[C@H](CO)[C@H](O)[C@H](O)[C@H]1O)[C@H](O)[C@H](O)CCCCCCCCCCCCCC [α-GalCer, α-galactosylceramide] | induced differentiation of the bone marrow cells into LIMs | have ligand activity for TREM2 | 
lysophosphatidylcholine [LPC] | induced differentiation of the bone marrow cells into LIMs | have ligand activity for TREM2 | 
mycolic acid [MA] | induced differentiation of the bone marrow cells into LIMs | have ligand activity for TREM2 | 
phosphatidylcholine [PC] | induced differentiation of the bone marrow cells into LIMs | have ligand activity for TREM2 | 
phosphatidylethanolamine [PE] | induced differentiation of the bone marrow cells into LIMs | have ligand activity for TREM2 | 
sulfatide | induced differentiation of the bone marrow cells into LIMs | have ligand activity for TREM2 | 
β-glucosylceramide [β-GluCer] | induced differentiation of the bone marrow cells into LIMs | have ligand activity for TREM2 | 
B1 |  |  | did not proliferate
